The record followed here is US20240025884A1 (Dong-A ST Co., Ltd., priority 2022, published 2024).

The IC50 is the midpoint of a concentration-inhibition curve.

The target in the assay is GCN2 (Homo sapiens (Human), UniProt Q9P2K8). The assay can be described thus: GCN2 Biochemical Assay (TR-FRET, GFP-eIF2S1 substrate phosphorylation). The following applies: read-out: IC50 (GCN2 Inhibitory Activity). The essentials:
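TR-FRET readout (Ex 340, Em 490/520 nm) after 2–3 h with Tb-labelled phospho-eIF2S1 antibody in stop mix, following a 70 min room-temperature kinase step. Reaction: in-house GCN2, GFP-eIF2S1, ATP, tRNA in Tris pH 7.5 (2× stocks 1.6 nM, 50 nM, 0.2 mM); compounds tested at 10 concentrations, with a phospho-substrate artifact counter-plate.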
In general terms: Time-resolved FRET reads energy transfer from a long-lived donor to a nearby acceptor.

GCN2, sequence (Q9P2K8 whole entry): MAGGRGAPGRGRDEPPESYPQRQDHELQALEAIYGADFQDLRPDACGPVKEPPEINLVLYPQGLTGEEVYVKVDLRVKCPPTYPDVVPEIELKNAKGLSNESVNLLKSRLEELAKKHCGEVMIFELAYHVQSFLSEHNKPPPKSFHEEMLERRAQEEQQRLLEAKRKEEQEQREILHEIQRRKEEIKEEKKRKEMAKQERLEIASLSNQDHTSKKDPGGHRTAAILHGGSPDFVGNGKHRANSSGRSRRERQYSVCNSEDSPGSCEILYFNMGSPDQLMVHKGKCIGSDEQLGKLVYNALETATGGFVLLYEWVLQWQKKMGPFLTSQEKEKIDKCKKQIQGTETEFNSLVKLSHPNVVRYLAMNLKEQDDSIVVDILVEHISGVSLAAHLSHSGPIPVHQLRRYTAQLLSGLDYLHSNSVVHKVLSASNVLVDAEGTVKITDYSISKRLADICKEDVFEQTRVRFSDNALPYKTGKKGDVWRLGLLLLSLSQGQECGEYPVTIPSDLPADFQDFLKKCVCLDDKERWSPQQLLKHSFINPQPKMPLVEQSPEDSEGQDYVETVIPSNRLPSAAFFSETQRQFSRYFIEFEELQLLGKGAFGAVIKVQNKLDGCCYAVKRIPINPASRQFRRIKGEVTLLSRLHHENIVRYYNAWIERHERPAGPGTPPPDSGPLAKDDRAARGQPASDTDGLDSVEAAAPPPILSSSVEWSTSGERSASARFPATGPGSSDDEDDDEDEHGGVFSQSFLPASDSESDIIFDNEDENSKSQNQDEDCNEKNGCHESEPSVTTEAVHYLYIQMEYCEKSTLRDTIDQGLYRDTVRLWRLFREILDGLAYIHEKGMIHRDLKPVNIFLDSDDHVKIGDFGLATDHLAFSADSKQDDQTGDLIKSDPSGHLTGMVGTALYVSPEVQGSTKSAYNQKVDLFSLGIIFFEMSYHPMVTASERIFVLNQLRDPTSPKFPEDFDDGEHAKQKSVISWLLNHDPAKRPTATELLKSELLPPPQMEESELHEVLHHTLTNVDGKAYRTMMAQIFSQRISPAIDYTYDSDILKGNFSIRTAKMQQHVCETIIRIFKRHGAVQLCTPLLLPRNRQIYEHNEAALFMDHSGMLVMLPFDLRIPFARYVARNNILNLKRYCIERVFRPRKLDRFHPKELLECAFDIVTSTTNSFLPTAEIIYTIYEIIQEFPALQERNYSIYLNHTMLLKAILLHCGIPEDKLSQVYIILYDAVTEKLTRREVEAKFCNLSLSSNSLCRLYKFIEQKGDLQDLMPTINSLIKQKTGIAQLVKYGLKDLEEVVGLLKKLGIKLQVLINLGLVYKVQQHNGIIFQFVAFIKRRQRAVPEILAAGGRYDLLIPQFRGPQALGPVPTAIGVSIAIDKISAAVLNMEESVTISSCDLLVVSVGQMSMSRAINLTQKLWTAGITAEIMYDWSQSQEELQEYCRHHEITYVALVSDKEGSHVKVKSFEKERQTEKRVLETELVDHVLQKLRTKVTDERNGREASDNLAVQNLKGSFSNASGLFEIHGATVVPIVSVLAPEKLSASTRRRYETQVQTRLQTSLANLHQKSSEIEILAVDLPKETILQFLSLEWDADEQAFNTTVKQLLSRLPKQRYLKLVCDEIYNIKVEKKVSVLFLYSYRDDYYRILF

In the case of `Cc1cnc(Nc2cc(C)n(C)n2)nc1-c1c[nH]c2c(N3Cc4c(cccc4-c4ccnc(N)c4)C3=O)cccc12` [Example 399, 4-(2-aminopyridin-4-yl)-2-(3-(2-((1,5-dimethyl-1H-pyrazol-3-yl)amino)-5-methylpyrimidin-4-yl)-1H-indol-7-yl)isoindolin-1-one], the IC50 was under 10 nM.

Regarding `Cc1cnc(Nc2cc(C)n(C)n2)nc1-c1c[nH]c2c(NC(=O)CN3CC[C@H](Oc4nccc(N5CCCC5)n4)C3)cccc12` [Example 173, (S)-N-(3-(2-((1,5-dimethyl-1H-pyrazol-3-yl)amino)-5-methylpyrimidin-4-yl)-1H-indol-7-yl)-2-(3-((4-(pyrrolidin-1-yl)pyrimidin-2-yl)oxy)pyrrolidin-1-yl)acetamide], the IC50 is under 10 nM. For the compound `Cc1cnc(Nc2cc(C)n(C)n2)nc1-c1c[nH]c2c(NC(=O)CN3CC[C@H](Oc4cc(C5=CCC(C)(C)CC5)ncn4)C3)cccc12` [Example 250], the 50% inhibitory concentration (IC50) was 100 to 1000 nM. `Cc1cnc(Nc2cc(C)n(C)n2)nc1C1=CCc2c1ccc(N(C)C)c2NC(=O)CN1CC[C@H](Oc2ccnc(NCC(F)(F)F)n2)C1` [Example 5, (S)-N-(3-(2-((1,5-dimethyl-1H-pyrazol-3-yl)amino)-5-methylpyrimidin-4-yl)-6-(dimethylamino)-1H-inden-7-yl)-2-(3-((2-((2,2,2-trifluoroethyl)amino)pyrimidin-4-yl)oxy)pyrrolidin-1-yl)acetamide]: the 50% inhibitory concentration (IC50) is under 10 nM. With `Cc1cnc(Nc2cc(C)n(C)n2)nc1-c1c[nH]c2c(N3Cc4c(NC(=O)C5(C)CC=CC5)cccc4C3=O)cccc12` [Example 311, N-(2-(3-(2-((1,5-dimethyl-1H-pyrazol-3-yl)amino)-5-methylpyrimidin-4-yl)-1H-indol-7-yl)-1-oxoisoindolin-4-yl)-1-methylcyclopent-3-ene-1-carboxamide], the half-maximal inhibitory concentration (IC50) lay in the range of 10 to 100 nM.

As for `Cc1cnc(Nc2cc(C)n(C)n2)nc1-c1c[nH]c2c(NC(=O)CN3CCC(Oc4ncccn4)CC3)cccc12` [Example 41, N-(3-(2-((1,5-dimethyl-1H-pyrazol-3-yl)amino)-5-methylpyrimidin-4-yl)-1H-indol-7-yl)-2-(4-(pyrimidin-2-yloxy)piperidin-1-yl)acetamide], the 50% inhibitory concentration (IC50) is 10 to 100 nM. As to `Cc1cnc(Nc2cc(C)n(C)n2)nc1-c1c[nH]c2c(N3Cc4c(NC(=O)Cc5cccc(O)c5)cccc4C3=O)cccc12` [Example 304, N-(2-(3-(2-((1,5-dimethyl-1H-pyrazol-3-yl)amino)-5-methylpyrimidin-4-yl)-1H-indol-7-yl)-1-oxoisoindolin-4-yl)-2-(3-hydroxyphenyl)acetamide], the IC50 is under 10 nM.

As for `Cc1cnc(Nc2cc(C)n(C)n2)nc1-c1c[nH]c2c(N3Cc4c(cccc4-c4ccc5ccncc5c4)C3=O)cccc12` [Example 448, 2-(3-(2-((1,5-dimethyl-1H-pyrazol-3-yl)amino)-5-methylpyrimidin-4-yl)-1H-indol-7-yl)-4-(isoquinolin-7-yl)isoindolin-1-one], the IC50 was under 10 nM. For `Cc1cnc(Nc2cc(C)n(C)n2)nc1-c1c[nH]c2c(N3Cc4cccc(NC(=O)C5CCCCC5)c4C3=O)cccc12` [Example 292, N-(2-(3-(2-((1,5-dimethyl-1H-pyrazol-3-yl)amino)-5-methylpyrimidin-4-yl)-1H-indol-7-yl)-3-oxoisoindolin-4-yl)cyclohexanecarboxamide], the IC50 fell in the range of 100 to 1000 nM. On to `CCCN(CC)c1cc(O[C@H]2CCN(CC(=O)Nc3cccc4c(-c5nc(Nc6cc(C)n(C)n6)ncc5C)c[nH]c34)C2)ncn1` [Example 156, (S)-N-(3-(2-((1,5-dimethyl-1H-pyrazol-3-yl)amino)-5-methylpyrimidin-4-yl)-1H-indol-7-yl)-2-(3-((6-(ethyl(propyl)amino)pyrimidin-4-yl)oxy)pyrrolidin-1-yl)acetamide], for which the IC50 is 10 to 100 nM. For `Cc1cnc(Nc2cc(C)n(C)n2)nc1-c1c[nH]c2c(N3C(=O)c4cccc(Br)c4C3=O)cccc12` [Example 262, 4-bromo-2-(3-(2-((1,5-dimethyl-1H-pyrazol-3-yl)amino)-5-methylpyrimidin-4-yl)-1H-indol-7-yl)isoindoline-1,3-dione], the IC50 is under 10 nM.

With `Cc1cnc(Nc2cc(C)n(C)n2)nc1-c1c[nH]c2c(NC(=O)CN3CC[C@H](Oc4ccc(F)c(N)c4)C3)cccc12` [Example 87, (S)-2-(3-(3-amino-4-fluorophenoxy)pyrrolidin-1-yl)-N-(3-(2-((1,5-dimethyl-1H-pyrazol-3-yl)amino)-5-methylpyrimidin-4-yl)-1H-indol-7-yl)acetamide], the IC50 was in the range of 10 to 100 nM. As for `CCCCCc1cnc(O[C@H]2CCN(CC(=O)Nc3cccc4c(-c5nc(Nc6cc(C)n(C)n6)ncc5C)c[nH]c34)C2)nc1` [Example 102, (S)-N-(3-(2-((1,5-dimethyl-1H-pyrazol-3-yl)amino)-5-methylpyrimidin-4-yl)-1H-indol-7-yl)-2-(3-((5-pentylpyrimidin-2-yl)oxy)pyrrolidin-1-yl)acetamide], the concentration for half-maximal inhibition (IC50) fell in the range of 10 to 100 nM. As for `Cc1cnc(Nc2cc(C)n(C)n2)nc1-c1c[nH]c2c(NC(=O)CN3CCC(N4CCOCC4)CC3)cccc12` [Example 37, N-(3-(2-((1,5-dimethyl-1H-pyrazol-3-yl)amino)-5-methylpyrimidin-4-yl)-1H-indol-7-yl)-2-(4-morpholinopiperidin-1-yl)acetamide], the 50% inhibitory concentration (IC50) was in the range of 100 to 1000 nM.

`Cc1cnc(Nc2cc(C)n(C)n2)nc1-c1c[nH]c2c(N3Cc4c(cccc4-c4cnn(CCN5CCOCC5)c4)C3=O)cccc12` [Example 416, 2-(3-(2-((1,5-dimethyl-1H-pyrazol-3-yl)amino)-5-methylpyrimidin-4-yl)-1H-indol-7-yl)-4-(1-(2-morpholinoethyl)-1H-pyrazol-4-yl)isoindolin-1-one]: the IC50 was under 10 nM. For the compound `Cc1cnc(Nc2cc(C)n(C)n2)nc1-c1c[nH]c2c(NC(=O)CN3CC[C@H](Oc4cc(N5CC[C@@H](O)C5)ncn4)C3)cccc12` [Example 160, N-(3-(2-((1,5-dimethyl-1H-pyrazol-3-yl)amino)-5-methylpyrimidin-4-yl)-1H-indol-7-yl)-2-((S)-3-((6-((R)-3-hydroxypyrrolidin-1-yl)pyrimidin-4-yl)oxy)pyrrolidin-1-yl)acetamide], the IC50 was under 10 nM. For the compound `Cc1cnc(Nc2cc(C)n(C)n2)nc1-c1c[nH]c2c(N3Cc4c(cccc4-c4ccncn4)C3=O)cccc12` [Example 421, 2-(3-(2-((1,5-dimethyl-1H-pyrazol-3-yl)anlino)-5-methylpyrimidin-4-yl)-1H-indol-7-yl)-4-(pyrimidin-4-yl)isoindolin-1-one], the IC50 was under 10 nM.

For the compound `COC(=O)[C@@H]1C[C@H](Oc2ccnc(NC3CC3)n2)CN1CC(=O)Nc1cccc2c(-c3nc(Nc4cc(C)n(C)n4)ncc3C)c[nH]c12` [Example 55, methyl (2S,4S)-4-((2-(cyclopropylamino)pyrimidin-4-yl)oxy)-1-(2-((3-(2-((1,5-dimethyl-1H-pyrazol-3-yl)amino)-5-methylpyrimidin-4-yl)-1H-indol-7-yl)amino)-2-oxoethyl)pyrrolidine-2-carboxylate], the IC50 was under 10 nM.

On to `Cc1cnc(Nc2cc(C)n(C)n2)nc1-c1c[nH]c2c(N3Cc4c(-c5ccnc(F)c5)ccc(F)c4C3=O)cccc12` [Example 485, 2-(3-(2-((1,5-dimethyl-1H-pyrazol-3-yl)amino)-5-methylpyrimidin-4-yl)-1H-indol-7-yl)-7-fluoro-4-(2-fluoropyridin-4-yl)isoindolin-1-one], for which the half-maximal inhibitory concentration (IC50) is under 10 nM.
